Structures are written as SMILES. Counter-ions that a name gives are not always drawn. A value given as a limit tells only on which side of the number the result lay.

Assay [1] relates to analgesic effect of morphine. Put plainly: antagonism to the analgesic effect of morphine, hot-plate analgesia test (P. A. Janssen et al.). The class given is in vivo, mice. Conditions: for Antagonism to the analgesic effect ID50a / ED50: female mice, antagonist s.c. 5 min before morphine 24 mg/kg s.c.; for ED50: read-out: Antagonism to the analgesic effect ID50a. The protocol: (§1) The antagonism to the peripheral action of opiates is assessed on the basis of the percent inhibition of the analgesic and of the constipating effects of morphine. The ratio between the dose which inhibits by 50% the analgesic effect of morphine and the dose which inhibits by 50% its constipating effect represents the index of the peripheral activity.
(§2) The antagonism to the analgesic effect of morphine was assessed by the hot-plate analgesia test according to P. A. Janssen et al. (J. Pharm. Pharmacol. 1957, 9, 381-400) by using fasting (18 hours) female mice of 20-22 g. Morphine was injected subcutaneously (24 mg/kg) thirty minutes before the beginning of the test. The antagonist was injected subcutaneously 5 minutes before the morphine. The antagonistic activity was expressed as ID50 of the morphine antinociceptive effect, calculated on the basis of the log dose reaction time regression of the animals treated with different doses of the products under testing.
(§3) The doses which inhibit by 50% the analgesic effect (ID50a) and the constipating effect (ID50c) have been extrapolated from least square log dose-response line by applying the analysis of the variance by linear regression.

For assay [2], the system named is constipating effect of morphine. Nature of the assay: antagonism to the morphine constipating effect, charcoal meal test (A. F. Green, slightly modified). The class given is in vivo, mice. The conditions noted are these: for Antagonism to the constipating effect ID50c / ED50: charcoal meal, female mice, antagonist s.c. 5 min before morphine 12 mg/kg s.c.; for ED50: Mus musculus, sc, read-out: Antagonism to the constipating effect ID50c. On the procedure:
as §1
(§4) The antagonism to the morphine constipating effect of the methyl levallorphanium salts of the present invention was assessed according to the test described by A. F. Green (Br. J. Pharm. Chemother. 1959, 14, 26-34), slightly modified.
(§5) Three groups of fasting (20 hours) female mice of about 20 g were used. To a control group, a meal consisting of 0.2 ml of a mixture of 5% arabic gum (6 ml), flour (2 g) and charcoal (1 g) was administered by oral route. The second group was treated with 12 mg/kg of morphine s.c. and, immediately afterwards, with the above charcoal meal. […] After 30 minutes, the animals were sacrificed to assess the portion of intestine through which the charcoal had passed, expressed as percent of the total length of the small intestine.
as §3

Assay [3] concerns analgesic and constipating effects of morphine. Put plainly: index of peripheral activity (hot-plate analgesia test versus charcoal meal constipation test). The class given is in vivo, mice. The conditions noted are these: for ID50a/ID50c: index of the peripheral activity; for peripheral selectivity (analgesic versus constipating effect), in words: conditions of Table I. On the procedure:
as §1, §2, §4, §5, §3

The subject of a further assay is opiate. Conditions: reported in earlier literature or filings; cited from earlier work.

For the compound `C=CC[N+]1(C)CC[C@]23CCCC[C@H]2[C@H]1Cc1ccc(O)cc13` (single isomer, unassigned) [methyllevallorphanium mesilate], the “Antagonism to the analgesic effect ID50a” value in assay [1] is listed as above 60 mg/kg. The “Antagonism to the constipating effect ID50c” value in assay [2] came out at 7.4 mg/kg. This compound showed an ID50a/ID50c in assay [3] above 8.

On to `C=CC[N+]1(C)CC[C@]23CCCC[C@H]2[C@H]1Cc1ccc(O)cc13` (single isomer, unassigned) [methyllevallorphanium methylsulfate], for which the inhibition at 30 mg/kg in assay [1] (Mus musculus, sc, at 30 mg/kg s.c., mice, read-out: inhib. of the analgesic effect of morphine) came to 41%. For the same compound, in assay [1] (Mus musculus, sc, at 60 mg/kg s.c., mice, read-out: inhib. of the analgesic effect of morphine), the inhibition at 60 mg/kg came out at 49%. In addition, the ED50 in assay [1] (Mus musculus, sc) was around 60 mg/kg; in assay [2] it was 4.9 mg/kg. In assay [3], the ID50a/ID50c is recorded as ~ 12.

Regarding `C=CC[N+]1(CC=C)CC[C@]23CCCC[C@H]2[C@H]1Cc1ccc(O)cc13` [levallorphan bromoallylate], in assay [2], the ED50 came to 15.7 mg/kg. Further, in assay [2] (conditions of Table I), the “peripheral opiate antagonism, in words” value is on record as “good opiate peripheral antagonist”. Moreover, in assay [3], the “peripheral selectivity (analgesic versus constipating effect), in words” value (from here on “peripheral selectivity”) was “the ratio between its ID50a and ID50c is by far lower than that of the compounds of the present invention”; the ID50a/ID50c amounted to 0.97. Further, in the assay with opiate, the “peripheral antagonistic activity / opiate antagonistic activity” value is listed as “peripheral narcotic antagonist”.

As for `C=CCN1CC[C@]23CCCC[C@H]2[C@H]1Cc1ccc(O)cc13` [levallorphan tartrate], the ED50 in assay [1] (Mus musculus, sc) is 0.03 mg/kg; in assay [2], 5.5 mg/kg. For the same compound, the “peripheral selectivity” value in assay [3] was “more active as antagonists of the analgesic effect than as antagonists of the constipating effect”. The ID50a/ID50c in assay [3] is 0.01.

With `C=CC[N+]1(C)CC[C@]23c4c5ccc(O)c4O[C@H]2C(=O)CC[C@@]3(O)[C@H]1C5.COS(=O)(=O)[O-]` (stereo partly drawn) [naloxone sulfomethylate], the “Antagonism to the analgesic effect ID50a” value in assay [1] amounted to 1.6 mg/kg. Moreover, the “Antagonism to the constipating effect ID50c” value in assay [2] worked out at 5.8 mg/kg. Also, in assay [3], the ID50a/ID50c was 0.27.

`C=CCN1CC[C@]23c4c5ccc(O)c4O[C@H]2C(=O)CC[C@@]3(O)[C@H]1C5` [naloxone, N-allylnoroxymorphone]: in assay [1] (Mus musculus, sc), the ED50 is 0.06 mg/kg. For the same compound, the ED50 in assay [2] is 0.75 mg/kg. Also, in assay [3], the “peripheral selectivity” value is on record as “more active as antagonists of the analgesic effect than as antagonists of the constipating effect” and the ID50a/ID50c turned out to be 0.08.

The record behind these values is patent US4735947A, “Methyllevallorphanium salts having peripheral opiate antagonistic activity” (Sanofi, priority 1983, dated 1988).
